Experiments:
Shc in HCT-8 cells = test: Shc activation, phospho-specific antibody; type: cell-based, human; settings: 10 uM
Procedure: (§1) FIGS. 25A-C. LPA (10 uM) activation of Shc (A), paxillin (B) and SHP-2(C) in HCT-8 cell lysates. Phospho-specific antibodies were used to detect the activated proteins.
(§2) Many of the growth and survival signaling pathways of cancer cells have been identified. […] The protein She is an adaptor protein and the protein phosphatase SHP-2 are known to link the activation of multiple growth factor receptors to their downstream signaling pathways in cancer cells (For review see Yart et al. (2003) Current Cancer Drug Targets 3:177-192). These proteins are involved in mitogenic signaling by linking growth stimuli to the Ras-mitogen-activated protein kinase cascade and the PI3K survival pathway. […] Additionally, paxillin is a scaffold molecule intricately involved in the regulation of focal adhesions in cancer cells. It is therefore involved in the regulation of cell spreading and motility and is controlled by a multitude of signaling moieties including growth factors, and their downstream signaling molecules. Paxillin recruits these signaling components into specific cell compartments known as focal adhesions (For review, see Schaller (2001) Oncogene 20:6459-72). […] By treating HCT-8 cells with LPA (10 uM), the effect of LPA on the phosphorylation of paxillin was measured using activation state specific antibodies ([…]).

paxillin in HCT-8 cells = test: Paxillin phosphorylation, activation state specific antibodies; type: cell-based, human; settings: 10 uM
Procedure: as §1, §2

ERK in HCT-8 cells = test: ERK phosphorylation by LPA; type: cell-based, human; settings: 10 μM LPA, 3 mins
Procedure: (§3) FIG. 23: Ability of LPA to phosphorylate ERK in cell lines known to express OSGPR114. 10 μM LPA and 1 μM EGF were used for this experiment, and the cells were stimulated with ligand for 3 mins prior to lysing.
(§4) One of the principal proliferative signaling pathways is the activation of ERK. […] However, the ability of LPA acting at OSGPR114 to effect ERK is unknown. HCT-8 cells, which express OSGPR114 at high levels, provide one of the best models available. […] This evidence supporting the hypothesis that LPA, likely acting at least in part at OSGPR114, induces ERK activation, a signaling pathway that is known to stimulate cellular proliferation.

ERK in ASPC-1 cells = test: ERK phosphorylation by LPA; type: cell-based, human; settings: 10 μM LPA, 3 mins
Procedure: as §3, §4

OSGPR78 = target: T1, OSGPR78 (Homo sapiens, UniProt P43657, I33V); test: Yeast Fus1p-LacZ β-galactosidase reporter assay, OSGPR78-transformed yeast; type: cell-based; settings: Galpha i and Galpha 12/13 family chimeras (13393, 15074, 13395)
T1 construct: expressed in transfected cells; host or cells: engineered yeast (GPA1 replaced by G-alpha chimeras, STE3 deleted; Fus1p-LacZ reporters)
T1 sequence (P43657 1-344 I33V): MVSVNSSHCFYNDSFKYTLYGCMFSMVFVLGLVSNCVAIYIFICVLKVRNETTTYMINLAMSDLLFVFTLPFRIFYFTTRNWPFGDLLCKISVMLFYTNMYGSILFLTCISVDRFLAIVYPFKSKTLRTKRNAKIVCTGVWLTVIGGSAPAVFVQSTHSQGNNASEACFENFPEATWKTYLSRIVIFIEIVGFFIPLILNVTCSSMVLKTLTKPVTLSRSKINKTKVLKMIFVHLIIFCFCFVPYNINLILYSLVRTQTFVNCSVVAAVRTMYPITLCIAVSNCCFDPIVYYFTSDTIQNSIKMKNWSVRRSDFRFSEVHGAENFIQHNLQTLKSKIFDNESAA
Excerpt: The yeast cell-based reporter assays have previously been described in the literature (e.g. see Miret J. J., et. al. (2002) J. Biol. Chem. 277:6881-6887; Campbell R. M., et. al. (1999) Bioorg Med. Chem. Lett. 9:2413-2418; King K., et. al. (1990) Science. 250:121-123); WO 99/14344; WO 00/12704; and U.S. Pat. No. 6,100,042). Briefly, yeast cells have been engineered such that the endogenous yeast G-alpha (GPA1) has been deleted and replaced with G-protein chimeras constructed using multiple techniques. Additionally the endogenous yeast alpha-cell GPCR, STE3 has been deleted to allow for a […] expression of a mammalian GPCR of choice. In the yeast, elements of the pheromone signaling transduction pathway, which are conserved in eukaryotic cells (for example, the mitogen-activated protein kinase pathway), drive the expression of Fus1. By placing β-galactosidase (LacZ) under the control of the Fus1 promoter (Fus1p), a system has been developed whereby receptor activation leads to an enzymatic read-out. Different yeast strains (e.g. FIG. 6) denote the presence of different G-alpha chimeras (see “yeast reporter assays” in Results section below for definitions).
Yeast cells are transformed by an adaptation of the Lithium acetate method described by Agatep et.al. (Agatep, R., et. al. (1998) Transformation of Saccharomyces cerevisiae by the lithium acetate/single-stranded carrier DNA/polyethylene glycol (LiAc/ss-DNA/PEG) protocol. Technical Tips Online, Trends Journals, Elsevier). Briefly, yeast cells are grown overnight on yeast tryptone plates (YT). Carrier single-stranded DNA (10 μg), 2 μg of each of two Fus1p-LacZ reporter plasmids (one with URA3 selection marker and one with TRP1), 2 μg of OSGPR114 or OSGPR78 in yeast expression vector (2p origin of replication) and a lithium acetate/polyethylene glycol/TE buffer is pipetted into an Epindorf tube. The yeast expression plasmid containing the receptor/no receptor control has a LEU2 marker. Yeast cells are inoculated into this mixture and the reaction proceeds at 30° C. for 60 minutes. The yeast cells are then heat-shocked at 42° C. for 15 minutes. The cells are then washed and spread on selection plates. The selection plates are synthetic defined yeast media minus LEU, URA and TRP (SD-LUT). After incubating at 30° C. for 2-3 days, colonies that grow on the selection plates are then tested in the LacZ assay.
In order to perform fluorometric enzyme assays for β-galactosidase, yeast cells were grown overnight in liquid SD-LUT media to an unsaturated concentration (i.e. the cells are still dividing and have not yet reached stationary phase). They are diluted in fresh media to an optimal assay concentration and 90 μL of yeast cells were added to 96-well black polystyrene plates (Costar). Compounds, dissolved in ethanol and diluted in a 1% BSA solution to 10× concentration, were added to the plates and the yeast are placed at 30° C. for 4 h. After 4 h, the substrate for the β-galactosidase is added to each well: The substrate may yield a fluorescent or calorimetric read-out upon the activity of the β-galactosidase. In these experiments, Fluorescein di(β-D-galactopyranoside) was used (FDG), a substrate for the enzyme that releases fluorescein, allowing a fluorometric read-out. 20 μL of 500 μM FDG was used. After incubation of the cells with the substrate for 30-60 mins, 20 μL of 1 M sodium carbonate is added to terminate the reaction and enhance the fluorescent signal. The plates were then read in a fluorometer at 485/535 nm. As an alternate read-out system, the yeast are also engineered with a Fus1p-HIS gene which means that activation of the receptor can also be measured through the growth of the yeast in a […] media.

response in yeast G-alpha chimera strains (OSGPR78): optimal for LPA response
Substance: lysophosphatidic acid [LPA]
phosphorylation of Shc (Shc in HCT-8 cells): induced the phosphorylation | phosphorylated paxillin (paxillin in HCT-8 cells): highly significant increase in phosphorylated paxillin | ERK activation (ERK in HCT-8 cells): stimulate ERK | ERK activation (ERK in ASPC-1 cells): stimulate ERK
